Assay results: EP0072352B1, “Benzazepin-2-ones, process for their preparation, pharmaceutical preparations containing these compounds and the compounds for therapeutical use” (CIBA-GEIGY AG, priority 1981, dated 1983)
Where a name gives a salt, the structure may show the parent alone. Read-outs that look alike come from different tables or passages of the source.

Key:
[1] = target: T1, Angiotensin-umwandelnde Enzym (ACE) (Oryctolagus cuniculus, UniProt P12822); experiment: In vitro ACE inhibition (ACEI), rabbit lung tissue preparation, hippuryl-histidyl-leucine substrate, method of Cheung and Cushman; type: biochemical, Kaninchen
T1 construct: Es wurde ein Kaninchen-Lungengewebe-Präparat; from tissue; host or cells: lung of adult male rabbits
T1 sequence (P12822 34-1310): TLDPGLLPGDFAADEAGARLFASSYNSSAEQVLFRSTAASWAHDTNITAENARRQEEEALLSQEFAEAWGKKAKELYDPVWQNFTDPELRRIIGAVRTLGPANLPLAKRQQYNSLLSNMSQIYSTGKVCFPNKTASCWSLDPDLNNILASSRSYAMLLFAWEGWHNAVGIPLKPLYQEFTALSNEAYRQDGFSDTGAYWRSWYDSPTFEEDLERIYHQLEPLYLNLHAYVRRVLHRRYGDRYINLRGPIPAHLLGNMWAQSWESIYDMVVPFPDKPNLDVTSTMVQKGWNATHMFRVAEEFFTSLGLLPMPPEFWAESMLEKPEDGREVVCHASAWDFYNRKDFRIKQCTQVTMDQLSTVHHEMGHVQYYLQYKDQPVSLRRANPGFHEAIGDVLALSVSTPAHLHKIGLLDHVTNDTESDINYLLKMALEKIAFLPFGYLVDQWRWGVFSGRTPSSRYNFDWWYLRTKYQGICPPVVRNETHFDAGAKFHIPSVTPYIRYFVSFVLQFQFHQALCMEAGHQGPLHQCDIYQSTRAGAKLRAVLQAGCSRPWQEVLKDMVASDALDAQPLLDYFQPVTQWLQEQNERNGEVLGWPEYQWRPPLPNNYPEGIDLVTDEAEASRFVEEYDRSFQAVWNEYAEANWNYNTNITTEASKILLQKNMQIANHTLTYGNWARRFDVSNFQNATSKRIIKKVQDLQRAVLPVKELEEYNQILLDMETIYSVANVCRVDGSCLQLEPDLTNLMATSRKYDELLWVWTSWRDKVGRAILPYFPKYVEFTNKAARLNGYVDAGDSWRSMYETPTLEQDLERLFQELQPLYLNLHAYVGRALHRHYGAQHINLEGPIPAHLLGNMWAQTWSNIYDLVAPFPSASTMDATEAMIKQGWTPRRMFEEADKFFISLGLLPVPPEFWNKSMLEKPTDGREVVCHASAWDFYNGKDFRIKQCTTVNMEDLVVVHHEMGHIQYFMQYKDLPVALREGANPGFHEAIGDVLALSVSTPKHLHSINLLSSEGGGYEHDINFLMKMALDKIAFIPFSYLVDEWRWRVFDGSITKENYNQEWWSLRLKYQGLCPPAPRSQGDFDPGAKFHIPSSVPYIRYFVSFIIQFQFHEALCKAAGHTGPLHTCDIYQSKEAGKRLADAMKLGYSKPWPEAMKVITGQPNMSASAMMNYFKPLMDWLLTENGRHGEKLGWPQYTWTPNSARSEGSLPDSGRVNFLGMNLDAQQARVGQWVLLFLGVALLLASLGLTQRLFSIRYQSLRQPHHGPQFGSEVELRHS
Excerpt: Die in-vitro-Hemmung des Enzyms, welches das Angiotensin umwandelt, kann bei den Verbindungen dieser Erfindung analog zu Biochim. Biophys. Acta 293, 451 (1973) nachgewiesen werden. Gemäß dieser Methode werden die genannten Verbindungen in ungefähr 1 mMol-Konzentrationen in Phosphatpuffer aufgelöst. Zu 100 Mikroliter von Lösungen der Testverbindung in Phosphatpuffer, welche man auf die gewünschte Konzentration verdünnt, gibt man zuerst 100 Mikroliter von 5 millimolarem Hippuryl-histidylleucin in Phosphatpuffer und dann 50 µl des Angiotensin-umwandelnden Enzyms. Dieses Enzym wird aus Lungen von erwachsenen männlichen Kaninchen in Tris-Puffer, der Kalium- und Magnesiumchlorid und auch Rohrzucker enthält, hergestellt. Die genannten Lösungen werden 30 Minuten bei 37 °C inkubiert, und die weitere Reaktion wird durch Hinzufügen von 0,75 ml einer 0,6-normalen wäßrigen Natriumhydroxidlösung gestoppt. Dann gibt man bei Zimmertemperatur 100 Mikroliter einer 0,2 %-igen Lösung von o-Phthalaldehyd in Methanol und nach 10 Minuten 100 Mikroliter 6n-Chlorwasserstoffsäure dazu. Diese Proben werden in einem Spektrophotometer bei 360 nm mit Wasser verglichen, und ihre optische Dichte wird bestimmt. Diese Werte werden durch einen Konversionsfaktor einer Standard-Kurve angepaßt, wobei man die während der genannten Inkubation von 30 Minuten gebildete Histidyl-leucin-Menge in Nanomolen erhält. Die Ergebnisse werden, um den IC50-Wert zu bestimmen, gegenüber den Wirkstoff-Konzentrationen graphisch als Kurve dargestellt. Der IC50-Wert bedeutet diejenige WirkstoffKonzentration, welche die Hälfte der Aktivität einer Kontrollprobe, die keinen Wirkstoff enthält, ergibt. Als Illustration der Erfindung sei auf das « höher schmelzende 1-Carboxymethyl-3-(1-carboxy-3-phenylpro- pylamino)-2,3,4,5-tetrahydro-1H-[1]-benzazepin-2-on des Beispiels 9 und auf das entsprechende S,S-Enantiomere des Beispiels 19 hingewiesen, welche einen lC50-Wert von 5,2 × 10^-9 M bzw. 1,7 × 10^-9 M aufweisen. Das entsprechende « niedriger schmelzende » 1-Carboxymethyl-3-(1-carboxy-3-phenylpropy- iamino)-2,3,4,5-tetrahydro-1H-[1] benzazepin-2-on des Beispiels 8 zeigt einen lC50-Wert von 5,8 ×10^-8 M.
Die Prüfung der Wirkung von Verbindungen ist gemäss den Methoden für die Auswertung der Hemmung des Enzyms, welches das Angiotensin umwandelt [angiotensin converting enzyme = ACE] durchgeführt worden. In der biochemischen Beurteilung der in vitro ACE-Hemmung [ACE inhibition = A-CEI] wird die Aktivität einer Verbindung im Kaninchen-Lungengewebe bestimmt.
Es wurde ein Kaninchen-Lungengewebe-Präparat [Das and Saffer, J. Biol. Chem. 250 : 6762 (1975) für die Bestimmung von ACE nach der Methode von Cheung und Cushman [Cheung and Cushman, Biochim. Biophys. Acta 293, 451 (1973)] verwendet. In dieser Methode wird die Menge des Histidyl-leucins. welche aus einem synthetischen Substrat innerhalb einer Inkubation von 30 Minuten bei 37° freigesetzt wird, spektrophotometrisch bestimmt. Die lC50-Werte der ACE-Hemmung werden dann graphisch berechnet. Der lC50-Wert ist die Konzentration (in Mol) der getesteten Verbindung, welche die in Abwesenheit der Testsubstanz entstehende Menge des Histidyl-leucins um 50 % herabsetzt.

[2] = test system: durch Angiotensin I (AI) hervorgerufene Blutdrucksteigerung; experiment: Inhibition of the angiotensin I (AI) induced blood pressure rise after intravenous administration of the test compound; type: in vivo, Ratten; conditions: for Hemmung der Blutdrucksteigerung nach Angiotensin I-Reizung: 1 mg/kg i.v., anaesthetised male normotensive rats, during 30 min after administration, 333 ng/kg angiotensin I; for % AI Hemmung: rat, mean inhibition within 30 min after administration
Excerpt: Die Verbindungen der Erfindung zeigen nach intravenöser oder oraler Verabreichung eine hemmende Wirkung gegen die durch Angiotensin I hervorgerufene Blutdrucksteigerung auch an normotensiven Ratten. Das Angiotensin 1 wird durch das genannte Umwandlungsenzym zu der stark blutdrucksteigernden Substanz Angiotensin II hydrolysiert. Die Hemmung des genannten Enzyms blockiert die Bildung von Angiotensin II aus Angiotensin I. In dieser Weise wird die durch Angiotensin I provozierte Blutdrucksteigerung abgeschwächt.
Der entsprechende in-vivo-Test mit den intravenös verabreichten Verbindungen wird mit männlichen normotensiven Ratten, welche mit dem Natriumsalz der 5-Äthyl-5-(1-methylpropyl)-2-thiobarbitursäure narkotisiert sind, durchgeführt. Eine femorale Arterie und eine Wadenvene werden mit je einer Hohlnadel für die direkte Messung des Blutdrucks und für die intravenöse Verabreichung des Angiotensins I und einer erfindungsgemäßen Verbindung versehen. Nach der Stabilisierung des basalen Blutdrucks wird die Druckänderung nach drei, in 5-minütigen Intervallen, i. v. durchgeführten Reizungen mit 333 ng/kg Angiotensin I bestimmt. Solche Druckänderungen werden wieder nach 5,10,15, 30 und 60 Minuten nach intravenöser Verabreichung der zu prüfenden Verbindung bestimmt. Die letztgenannten Druckänderungen werden mit den Anfangswerten verglichen. Jede festgestellte Abnahme vom Ansprechen des Blutdrucks ist ein Hinweis auf die Hemmung des Enzyms, welches das Angiotensin I umwandelt. Als Illustration der Erfindung sei auf das « höher schmelzende » 1-Carboxymethyl-3-(1-äthoxycarbonyl-3-phenylpropylamino)-2,3,4,5-tetrahydro-1H-[1] benzazepin-2-on des Beispiels 1 und auf das entsprechende S,S-Enantiomere des Beispiels 12 hingewiesen. Diese hemmen vollständig die Blutdrucksteigerung nach Angiotensin I-Reizung während 30 Minuten nach intravenöser Verabreichung einer Dosis von 1 mg/kg pro Substanz.
In der in vivo Prüfungsmethode wird zuerst durch Verabreichung des Angiotensins I (AI) an das Versuchstier eine Blutdrucksteigerung hervorgerufen. Es wird dann die Hemmung der einzelnen Verbindungen auf diese Blutdrucksteigerung gemessen.
11. Methode der Hemmung der durch Angiotensin I (AI) hervorgerufenen Blutdrucksteigerung, durch intravenöse Verabreichung der Testverbindung (% AI-Hemmung)
In diesen Untersuchungen wird wie oben beschrieben, je ein Katheter in eine femurale Arterie und in eine Wadenvene der Ratte eingeführt.
Der arterielle Druck wurde von dem Arterienkatheter aus registriert, während man Angiotensin I (AI) und die einzelnen Testverbindungen durch den Venenkatheter injiziert hatte. Die Hemmung der durch Angiotensin I verursachten Blutdrucksteigerung ist als prozentuelle Abnahme des vor der Behandlung erhaltenen Kontrollwertes der Blutdrucksteigerung ausgedrückt und in der Tabelle als Durchschnittswert der Hemmung innerhalb 30 Minuten nach Verabreichung der Testsubstanz angegeben. (Siehe Tabelle Seite 41 f.)

[3] = test system: spontan hypertensiven Ratten; experiment: Antihypertensive effect in spontaneously hypertensive rats, indirect measurement of systolic blood pressure (tail cuff), oral dosing; type: in vivo
Excerpt: Die in vivo blutdrucksenkende Wirkung wird entweder direkt mit einem Katheter, der in die femorale Arterie des Versuchstieres eingeführt ist, oder indirekt durch Sphygmomanometrie am Rattenschwanz, und einem Übertragungsinstrument registriert. Der Blutdruck wird vor und nach der Verabreichung des Wirkstoffes in mm Hg bestimmt.
So sind die antihypertensiven Wirkungen in spontan hypertensiven Ratten durch indirekte Messung des systolischen Blutdrucks nachweisbar. Nicht narkotisierte Ratten werden einzeln in Käfigen, welche ihre Bewegung einschränken, in eine leicht geheizte Kammer gebracht. Ein Puls-Sensor wird innerhalb einer aufblasbaren Manschette am Schwanz jeder Ratte angebracht. Die Manschette wird aufgeblasen, um die Schwanz-Arterie zu schließen. Der Druck in der Manschette wird kontinuierlich reduziert, und der systolische Druck entspricht demjenigen Druck in der Manschette, bei welchem die Pulswellen wieder auftreten. Nach der Registrierung von Kontrollwerten des Blutdrucks und der Herzfrequenz werden die Testverbindungen peroral einmal täglich an vier aufeinanderfolgenden Tagen verabreicht. Zusätzliche Blutdruckmessungen werden üblicherweise nach 2,0, 4,0 und 23,5 Stunden nach jeder täglichen Dosis vorgenommen. Die Werte werden mit denjenigen von Ratten, welche lediglich mit der Trägersubstanz behandelt worden sind, verglichen. […]

[4] = rabbit lung tissue preparation, 30 min incubation at 37°, read-out: In vitro ACEI IC50
[5] = ACE from rabbit lung, 30 min at 37 °C, read-out: IC50-Wert

IC50 [1, 4] | IC50 [1, 5] | Compound | % AI Hemmung ([2]; i.v. Dosis 0.1 mg/kg) | % AI Hemmung ([2]; i.v. Dosis 0.03 mg/kg) | also measured
600 nM |  | CCOC(=O)[C@H](CCc1ccccc1)N[C@H]1CCc2ccccc2N(CC(=O)O)C1=O (racemic) [Beispiel 1, 1-Carboxymethyl-3-(1-äthoxycarbonyl-3-phenylpropylamino)-2,3,4,5-tetrahydro-1H-[1] benzazepin-2-on] | 50% |  | Hemmung der Blutdrucksteigerung nach Angiotensin I-Reizung [2]: vollständig; % AI Hemmung ([2]; i.v. Dosis 1.0 mg/kg): 100%; % AI Hemmung ([2]; i.v. Dosis 10 mg/kg): 100%; Blutdruck gesenkt (antihypertensiver Effekt) ([3]; 3 mg/kg p. o., once daily for four days, average, measured 2 and 4 h after dosing on the last two days): 40 mm Hg
 | 58 nM | O=C(O)CN1C(=O)C(NC(CCc2ccccc2)C(=O)O)CCc2ccccc21 (single isomer, unassigned) [Beispiel 8, 1-Carboxymethyl-3-(1-carboxy-3-phenylpropylamino)-2,3,4,5-tetrahydro-1H-[1] benzazepin-2-on] |  |  | 
5 nM | 5.2 nM | O=C(O)CN1C(=O)C(NC(CCc2ccccc2)C(=O)O)CCc2ccccc21 (single isomer, unassigned) [Beispiel 9, 1-Carboxymethyl-3-(1-carboxy-3-phenylpropylamino)-2,3,4,5-tetrahydro-1H-[1]-benzazepin-2-on] | 80% | 40% | % AI Hemmung ([2]; i.v. Dosis 0.3 mg/kg): 93%
400 nM |  | CCOC(=O)[C@H](CCc1ccccc1)N[C@H]1CCc2ccccc2N(CC(=O)O)C1=O [12 HCl Salz] | 82% | 29% | % AI Hemmung ([2]; i.v. Dosis 0.06 mg/kg): 74%; % AI Hemmung ([2]; i.v. Dosis 0.3 mg/kg): 95%; % AI Hemmung ([2]; i.v. Dosis 1.0 mg/kg): 100%
200 nM |  | CCOC(=O)[C@@H](CCc1ccccc1)N[C@H]1CCc2ccccc2N(CC(=O)O)C1=O [Beispiel 5, 1-Carboxymethyl-3-(1-äthoxycarbonyl-3-phenylpropylamino)-2,3,4,5,-tetrahydro-1H-[1] benzazepin-2-on] | 37% |  | 
 |  | CCOC(=O)[C@H](CCc1ccccc1)N[C@H]1CCc2ccccc2N(CC(=O)O)C1=O [Beispiel 12, 1-Carboxymethyl-3S-(1S-äthoxycarbonyl-3-phenylpropylamino)-2,3,4,5-tetrahydro-1H-[1] benzazepin-2-on] |  |  | Hemmung der Blutdrucksteigerung nach Angiotensin I-Reizung [2]: vollständig; Blutdruck gesenkt (antihypertensiver Effekt) ([3]; peroral dose of 1 mg/kg): 30 mm Hg
2 nM | 1.7 nM | O=C(O)CN1C(=O)[C@@H](N[C@@H](CCc2ccccc2)C(=O)O)CCc2ccccc21 [Beispiel 19, 1-Carboxymethyl-3S-(1S-carboxy-3-phenylpropylamino)-2,3,4,5-tetrahydro-1H-[1] benzazepin-2-on] | 93% | 70% | % AI Hemmung ([2]; i.v. Dosis 0.007 mg/kg): 14%; % AI Hemmung ([2]; i.v. Dosis 0.01 mg/kg): 28%; % AI Hemmung ([2]; i.v. Dosis 0.02 mg/kg): 69%; % AI Hemmung ([2]; i.v. Dosis 0.06 mg/kg): 84%
